According to ChEMBL document CHEMBL4665805, “Expression of the Clifednamide Biosynthetic Pathway in Streptomyces Generates 27,28-seco-Derivatives” (J Nat Prod, 2020):
The source made the active and inactive calls. No cut-off for these calls is given here.

These compounds were tested on Fusarium graminearum (assay: Antimicrobial activity against Fusarium graminearum at 50 microg/disk by disc diffusion assay). Conditions: dose 50.0 µg/disk.
Format: functional, organism-based

`CC(=O)[C@H]1[C@@H]2C=C[C@@H]3[C@@H](C/C=C\C(N)=O)[C@H](/C=C/C(=O)C4=C(O)[C@H](CCC(=O)O)NC4=O)C[C@@H]3[C@H]2C[C@H]1C` was tested. Which Activity did it give?
The Activity was “inactive”.

For `CC(=O)[C@H]1[C@@H]2C=C[C@@H]3/C=C/C=C/C(=O)NCC[C@H](O)[C@@H]4NC(=O)C(=C4O)C(=O)/C=C/C=C/[C@@H]3[C@H]2C[C@H]1C`, which Activity is on record?
Its Activity is “inactive”.

How did the Activity turn out when `CC(=O)[C@H]1[C@@H]2C=C[C@@H]3/C=C/C=C/C(=O)NCCC[C@@H]4NC(=O)C(=C4O)C(=O)/C=C/C=C/[C@@H]3[C@H]2C[C@H]1C` was run?
Its Activity is “inactive”.

Which Activity does the source give for `CC(=O)[C@H]1[C@@H]2C=C[C@@H]3[C@H]4C/C=C\C(=O)NCCC[C@@H]5NC(=O)C(=C5O)C(=O)/C=C/[C@@H]4C[C@@H]3[C@H]2C[C@H]1C` here?
Its Activity is “inactive”.

For `CC[C@H]1[C@@H]2C=C[C@H](/C=C/C=C/C(N)=O)[C@H](/C=C/C=C/C(=O)C3=C(O)[C@H](CCC(=O)O)NC3=O)[C@H]2C[C@H]1C`, which Activity is on record?
Its Activity is “inactive”.

What follows are compounds tested on Xanthomonas oryzae (assay: Antimicrobial activity against Xanthomonas oryzae pv. oryzicola RS105 at 20 microg/disk by disc diffusion assay). Conditions: dose 20.0 µg/disk.
Format: functional

Which Activity does the source give for `CC(=O)[C@H]1[C@@H]2C=C[C@@H]3[C@@H](C/C=C\C(N)=O)[C@H](/C=C/C(=O)C4=C(O)[C@H](CCC(=O)O)NC4=O)C[C@@H]3[C@H]2C[C@H]1C` here?
The Activity was “inactive”.

`CC(=O)[C@H]1[C@@H]2C=C[C@@H]3/C=C/C=C/C(=O)NCC[C@H](O)[C@@H]4NC(=O)C(=C4O)C(=O)/C=C/C=C/[C@@H]3[C@H]2C[C@H]1C` was tested. Which Activity did it give?
Its Activity is “inactive”.

`CC(=O)[C@H]1[C@@H]2C=C[C@@H]3/C=C/C=C/C(=O)NCCC[C@@H]4NC(=O)C(=C4O)C(=O)/C=C/C=C/[C@@H]3[C@H]2C[C@H]1C` was tested. Which Activity did it give?
Its Activity is “inactive”.

With `CC(=O)[C@H]1[C@@H]2C=C[C@@H]3[C@H]4C/C=C\C(=O)NCCC[C@@H]5NC(=O)C(=C5O)C(=O)/C=C/[C@@H]4C[C@@H]3[C@H]2C[C@H]1C` as the compound, how does the Activity read?
The Activity was “inactive”.

`CC[C@H]1[C@@H]2C=C[C@H](/C=C/C=C/C(N)=O)[C@H](/C=C/C=C/C(=O)C3=C(O)[C@H](CCC(=O)O)NC3=O)[C@H]2C[C@H]1C` was tested. Which Activity did it give?
The Activity was “inactive”.

These compounds were tested on MIA PaCa-2 (assay: Cytotoxicity against human MIA PaCa-2 cells assessed as reduction in cell viability by MTT assay). Conditions: not given.
Format: functional, cell-based

With `CC(=O)[C@H]1[C@@H]2C=C[C@@H]3[C@H]4C/C=C\C(=O)NCCC[C@@H]5NC(=O)C(=C5O)C(=O)/C=C/[C@@H]4C[C@@H]3[C@H]2C[C@H]1C` as the compound, how does the IC50 read?
Its IC50 is 2400 nM.

Each compound was assayed on Bacillus subtilis (assay: Antimicrobial activity against Bacillus subtilis at 20 microg/disk by disc diffusion assay). Conditions: dose 20.0 µg/disk.
Format: functional, organism-based

How did the Activity turn out when `CC(=O)[C@H]1[C@@H]2C=C[C@@H]3[C@@H](C/C=C\C(N)=O)[C@H](/C=C/C(=O)C4=C(O)[C@H](CCC(=O)O)NC4=O)C[C@@H]3[C@H]2C[C@H]1C` was run?
Its Activity is “inactive”.

Which Activity does the source give for `CC(=O)[C@H]1[C@@H]2C=C[C@@H]3/C=C/C=C/C(=O)NCC[C@H](O)[C@@H]4NC(=O)C(=C4O)C(=O)/C=C/C=C/[C@@H]3[C@H]2C[C@H]1C` here?
Its Activity is “inactive”.

How did the Activity turn out when `CC(=O)[C@H]1[C@@H]2C=C[C@@H]3/C=C/C=C/C(=O)NCCC[C@@H]4NC(=O)C(=C4O)C(=O)/C=C/C=C/[C@@H]3[C@H]2C[C@H]1C` was run?
Its Activity is “inactive”.

For `CC(=O)[C@H]1[C@@H]2C=C[C@@H]3[C@H]4C/C=C\C(=O)NCCC[C@@H]5NC(=O)C(=C5O)C(=O)/C=C/[C@@H]4C[C@@H]3[C@H]2C[C@H]1C`, which Activity is on record?
The Activity was “inactive”.

`CC[C@H]1[C@@H]2C=C[C@H](/C=C/C=C/C(N)=O)[C@H](/C=C/C=C/C(=O)C3=C(O)[C@H](CCC(=O)O)NC3=O)[C@H]2C[C@H]1C` was tested. Which Activity did it give?
Its Activity is “inactive”.

What follows are compounds tested on Streptomyces sp. (assay: Antimicrobial activity against Streptomyces sp. S001 at 20 microg/disk by disc diffusion assay). Conditions: dose 20.0 µg/disk.
Format: functional, organism-based

With `CC(=O)[C@H]1[C@@H]2C=C[C@@H]3[C@@H](C/C=C\C(N)=O)[C@H](/C=C/C(=O)C4=C(O)[C@H](CCC(=O)O)NC4=O)C[C@@H]3[C@H]2C[C@H]1C` as the compound, how does the Activity read?
The Activity was “inactive”.

For `CC(=O)[C@H]1[C@@H]2C=C[C@@H]3/C=C/C=C/C(=O)NCC[C@H](O)[C@@H]4NC(=O)C(=C4O)C(=O)/C=C/C=C/[C@@H]3[C@H]2C[C@H]1C`, which Activity is on record?
The Activity was “inactive”.

With `CC(=O)[C@H]1[C@@H]2C=C[C@@H]3/C=C/C=C/C(=O)NCCC[C@@H]4NC(=O)C(=C4O)C(=O)/C=C/C=C/[C@@H]3[C@H]2C[C@H]1C` as the compound, how does the Activity read?
Its Activity is “inactive”.

`CC(=O)[C@H]1[C@@H]2C=C[C@@H]3[C@H]4C/C=C\C(=O)NCCC[C@@H]5NC(=O)C(=C5O)C(=O)/C=C/[C@@H]4C[C@@H]3[C@H]2C[C@H]1C` was tested. Which Activity did it give?
Its Activity is “inactive”.

Which Activity does the source give for `CC[C@H]1[C@@H]2C=C[C@H](/C=C/C=C/C(N)=O)[C@H](/C=C/C=C/C(=O)C3=C(O)[C@H](CCC(=O)O)NC3=O)[C@H]2C[C@H]1C` here?
Its Activity is “inactive”.

The compounds below were run on Pythium aphanidermatum (assay: Antimicrobial activity against Pythium aphanidermatum at 50 microg/disk by disc diffusion assay). Conditions: dose 50.0 µg/disk.
Format: functional, organism-based

How did the Activity turn out when `CC(=O)[C@H]1[C@@H]2C=C[C@@H]3[C@@H](C/C=C\C(N)=O)[C@H](/C=C/C(=O)C4=C(O)[C@H](CCC(=O)O)NC4=O)C[C@@H]3[C@H]2C[C@H]1C` was run?
The Activity was “inactive”.

`CC(=O)[C@H]1[C@@H]2C=C[C@@H]3/C=C/C=C/C(=O)NCC[C@H](O)[C@@H]4NC(=O)C(=C4O)C(=O)/C=C/C=C/[C@@H]3[C@H]2C[C@H]1C` was tested. Which Activity did it give?
The Activity was “inactive”.

Which Activity does the source give for `CC(=O)[C@H]1[C@@H]2C=C[C@@H]3/C=C/C=C/C(=O)NCCC[C@@H]4NC(=O)C(=C4O)C(=O)/C=C/C=C/[C@@H]3[C@H]2C[C@H]1C` here?
The Activity was “inactive”.

Which Activity does the source give for `CC(=O)[C@H]1[C@@H]2C=C[C@@H]3[C@H]4C/C=C\C(=O)NCCC[C@@H]5NC(=O)C(=C5O)C(=O)/C=C/[C@@H]4C[C@@H]3[C@H]2C[C@H]1C` here?
Its Activity is “inactive”.

`CC[C@H]1[C@@H]2C=C[C@H](/C=C/C=C/C(N)=O)[C@H](/C=C/C=C/C(=O)C3=C(O)[C@H](CCC(=O)O)NC3=O)[C@H]2C[C@H]1C` was tested. Which Activity did it give?
The Activity was “inactive”.

These compounds were tested on Staphylococcus aureus (assay: Antimicrobial activity against Staphylococcus aureus ATCC 25923 at 20 microg/disk by disc diffusion assay). Conditions: dose 20.0 µg/disk.
Format: functional, organism-based

How did the Activity turn out when `CC(=O)[C@H]1[C@@H]2C=C[C@@H]3[C@@H](C/C=C\C(N)=O)[C@H](/C=C/C(=O)C4=C(O)[C@H](CCC(=O)O)NC4=O)C[C@@H]3[C@H]2C[C@H]1C` was run?
Its Activity is “inactive”.

`CC(=O)[C@H]1[C@@H]2C=C[C@@H]3/C=C/C=C/C(=O)NCC[C@H](O)[C@@H]4NC(=O)C(=C4O)C(=O)/C=C/C=C/[C@@H]3[C@H]2C[C@H]1C` was tested. Which Activity did it give?
The Activity was “inactive”.

`CC(=O)[C@H]1[C@@H]2C=C[C@@H]3/C=C/C=C/C(=O)NCCC[C@@H]4NC(=O)C(=C4O)C(=O)/C=C/C=C/[C@@H]3[C@H]2C[C@H]1C` was tested. Which Activity did it give?
Its Activity is “inactive”.

With `CC(=O)[C@H]1[C@@H]2C=C[C@@H]3[C@H]4C/C=C\C(=O)NCCC[C@@H]5NC(=O)C(=C5O)C(=O)/C=C/[C@@H]4C[C@@H]3[C@H]2C[C@H]1C` as the compound, how does the Activity read?
Its Activity is “inactive”.

How did the Activity turn out when `CC[C@H]1[C@@H]2C=C[C@H](/C=C/C=C/C(N)=O)[C@H](/C=C/C=C/C(=O)C3=C(O)[C@H](CCC(=O)O)NC3=O)[C@H]2C[C@H]1C` was run?
The Activity was “inactive”.

What follows are compounds tested on Salmonella typhimurium (assay: Antimicrobial activity against Salmonella enterica serovar Typhimurium UK-1 x8956 at 20 microg/disk by disc diffusion assay). Conditions: Salmonella enterica subsp. enterica serovar Typhimurium, dose 20.0 µg/disk.
Format: functional, organism-based

For `CC(=O)[C@H]1[C@@H]2C=C[C@@H]3[C@@H](C/C=C\C(N)=O)[C@H](/C=C/C(=O)C4=C(O)[C@H](CCC(=O)O)NC4=O)C[C@@H]3[C@H]2C[C@H]1C`, which Activity is on record?
The Activity was “inactive”.

How did the Activity turn out when `CC(=O)[C@H]1[C@@H]2C=C[C@@H]3/C=C/C=C/C(=O)NCC[C@H](O)[C@@H]4NC(=O)C(=C4O)C(=O)/C=C/C=C/[C@@H]3[C@H]2C[C@H]1C` was run?
The Activity was “inactive”.

For `CC(=O)[C@H]1[C@@H]2C=C[C@@H]3/C=C/C=C/C(=O)NCCC[C@@H]4NC(=O)C(=C4O)C(=O)/C=C/C=C/[C@@H]3[C@H]2C[C@H]1C`, which Activity is on record?
The Activity was “inactive”.

Which Activity does the source give for `CC(=O)[C@H]1[C@@H]2C=C[C@@H]3[C@H]4C/C=C\C(=O)NCCC[C@@H]5NC(=O)C(=C5O)C(=O)/C=C/[C@@H]4C[C@@H]3[C@H]2C[C@H]1C` here?
Its Activity is “inactive”.

With `CC[C@H]1[C@@H]2C=C[C@H](/C=C/C=C/C(N)=O)[C@H](/C=C/C=C/C(=O)C3=C(O)[C@H](CCC(=O)O)NC3=O)[C@H]2C[C@H]1C` as the compound, how does the Activity read?
The Activity was “inactive”.

Each compound was assayed on A549 (assay: Cytotoxicity against human A549 cells assessed as reduction in cell viability by MTT assay). Conditions: not given.
Format: functional, cell-based

With `CC(=O)[C@H]1[C@@H]2C=C[C@@H]3[C@H]4C/C=C\C(=O)NCCC[C@@H]5NC(=O)C(=C5O)C(=O)/C=C/[C@@H]4C[C@@H]3[C@H]2C[C@H]1C` as the compound, how does the IC50 read?
Its IC50 is 1400 nM.
